In patent US20230093861A1, “RAPAMYCIN ANALOGS AS MTOR INHIBITORS” (Revolution Medicines, Inc., priority 2017, published 2023):
Like-named read-outs stand apart in the source and are kept apart here.

Tests used:
P-Akt (S473) = assay: Cell based AlphaLISA assay, inhibition of P-Akt (S473) (mTORC2 substrate phosphorylation) in MDA-MB-468 cells; conditions: Homo sapiens, AlphaLISA, two to four hours at 37° C., read-out: pIC50 for Inhibition of mTORC1 and mTORC2 Substrate Phosphorylation, p-AKT 1/2/3 -(S473) (converted)
Procedure, shortened: (§1)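 Phosphoprotein levels were quantified with AlphaLISA SureFire Ultra kits after compound treatment. Incubation ended by removing assay buffer and lysing cells, and the Alpha signal was read in duplicate. IC50 came from normalized concentration-response regression with control-based normalization.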

P-P70S6K (T389) = assay: Cell based AlphaLISA assay, inhibition of P-P70S6K (T389) (mTORC1 substrate phosphorylation) in MDA-MB-468 cells; conditions: Homo sapiens, 4 h, AlphaLISA, two to four hours at 37° C., read-out: pIC50 for Inhibition of mTORC1 and mTORC2 Substrate Phosphorylation, P-P70S6K-(T389) (converted)
Procedure, shortened: as §1

P-4E-BP1 (T37/46) = assay: Cell based AlphaLISA assay, inhibition of P-4E-BP1 (T37/46) (mTORC1 substrate phosphorylation) in MDA-MB-468 cells; conditions: Homo sapiens, AlphaLISA, two to four hours at 37° C., read-out: pIC50 for Inhibition of mTORC1 and mTORC2 Substrate Phosphorylation, P-4E-BP1-(T37/46) (converted)
Procedure, shortened: as §1

Structure (SMILES) | IC50 (P-Akt (S473); MDA-MB-468, 4 h) | IC50 (P-P70S6K (T389)) | IC50 (P-4E-BP1 (T37/46); MDA-MB-468, 4 h) | IC50 (P-Akt (S473); 4 h) | IC50 (P-4E-BP1 (T37/46); 4 h)
COc1ccc(-c2ccc3ncc4c(c3c2)n(-c2ccc(N3CCN(c5ncc(CNC(=O)CCOCCOCCOCCOCCOCCOCCn6cc(CCCCO[C@@H]7CC[C@@H](C[C@@H](C)[C@@H]8CC(=O)[C@H](C)/C=C(\C)[C@@H](O)[C@@H](OC)C(=O)[C@H](C)C[C@H](C)/C=C/C=C/C=C(\C)[C@@H](OC)C[C@@H]9CC[C@@H](C)[C@@](O)(O9)C(=O)C(=O)N9CCCC[C@H]9C(=O)O8)C[C@H]7OC)nn6)cn5)CC3)c(C(F)(F)F)c2)c(=O)n4C)cn1 [Example 66] | < 3.16 nM | < 1 nM | < 3.16 nM |  | 
CO[C@H]1C[C@@H]2CC[C@@H](C)[C@@](O)(O2)C(=O)C(=O)N2CCCC[C@H]2C(=O)O[C@H]([C@H](C)C[C@@H]2CC[C@@H](O)[C@H](OC)C2)C[C@@H](O)[C@H](C)/C=C(\C)[C@@H](O)[C@@H](OC)C(=NOCc2cn(-c3cnc(N4CCN(c5ncc(C(=O)NCCOCCC(=O)NCCCCn6nc(-c7ccc8oc(N)nc8c7)c7c(N)ncnc76)cn5)CC4)nc3)nn2)[C@H](C)C[C@H](C)/C=C/C=C/C=C/1C [Example 191] | > 1000 nM | < 1 nM | < 3.16 nM |  | 
COc1ccc(-c2ccc3ncc4c(c3c2)n(-c2ccc(N3CCN(C(=O)CCOCCOCCOCCOCCOCCOCCOCCOCCn5cc(CCCCO[C@@H]6CC[C@@H](C[C@@H](C)[C@@H]7CC(=O)[C@H](C)/C=C(\C)[C@@H](O)[C@@H](OC)C(=O)[C@H](C)C[C@H](C)/C=C/C=C/C=C(\C)[C@@H](OC)C[C@@H]8CC[C@@H](C)[C@@](O)(O8)C(=O)C(=O)N8CCCC[C@H]8C(=O)O7)C[C@H]6OC)nn5)CC3)c(C(F)(F)F)c2)c(=O)n4C)cn1 [Example 11] | < 3.16 nM | < 1 nM | < 3.16 nM |  | 
COC(=O)N[C@H]1C[C@@H]2CC[C@@H](C)[C@@](O)(O2)C(=O)C(=O)N2CCCC[C@H]2C(=O)O[C@H]([C@H](C)C[C@@H]2CC[C@@H](OCCCCc3cn(CCOCCOCCOCCOCCOCCOCCOCCOCCC(=O)NCCCCn4nc(-c5cc6cc(O)ccc6[nH]5)c5c(N)ncnc54)nn3)[C@H](OC)C2)CC(=O)[C@H](C)/C=C(\C)[C@@H](O)[C@@H](OC)C(=O)[C@H](C)C[C@H](C)/C=C/C=C/C=C/1C [Example 71] | > 1000 nM | 1 to 10 nM | 3.16 to 31.6 nM |  | 
CO[C@H]1C[C@@H]2CC[C@@H](C)[C@@](O)(O2)C(=O)C(=O)N2CCCC[C@H]2C(=O)O[C@H]([C@H](C)C[C@@H]2CC[C@H](n3cc(COC(=O)NCCOCCOCCOCCC(=O)NCCOCCOCCC(=O)NCCCCn4nc(-c5ccc6oc(N)nc6c5)c5c(N)ncnc54)nn3)[C@H](OC)C2)C/C(=N/OC(C)(C)C)[C@H](C)/C=C(\C)[C@@H](O)[C@@H](OC)C(=O)[C@H](C)C[C@H](C)/C=C/C=C/C=C/1C [Example 158] | > 1000 nM | > 1000 nM | > 1000 nM |  | 
CO[C@H]1C[C@@H]2CC[C@@H](C)[C@@](O)(O2)C(=O)C(=O)N2CCCC[C@H]2C(=O)O[C@H]([C@H](C)C[C@@H]2CC[C@H](n3nncc3-c3cccc(-c4cn(CCOCCOCCOCCOCCOCCOCCOCCOCCC(=O)NCCCCn5nc(-c6ccc7oc(N)nc7c6)c6c(N)ncnc65)nn4)c3)[C@H](OC)C2)CC(=O)[C@H](C)/C=C(\C)[C@@H](O)[C@@H](OC)C(=O)[C@H](C)C[C@H](C)/C=C/C=C/C=C/1C [Example 62] | > 1000 nM | > 1000 nM | > 1000 nM |  | 
CO[C@H]1C[C@@H]2CC[C@@H](C)[C@@](O)(O2)C(=O)C(=O)N2CCCC[C@H]2C(=O)O[C@H]([C@H](C)C[C@@H]2CC[C@@H](OCCCCc3cn(CCOCCOCCOCCOCCOCCOCCC(=O)N4CCc5cc(Cn6nc(-c7ccc8oc(N)nc8c7)c7c(N)ncnc76)ccc5C4)nn3)[C@H](OC)C2)CC(=O)[C@H](C)/C=C(\C)[C@@H](O)[C@@H](OC)C(=O)[C@H](C)C[C@H](C)/C=C/C=C/C=C/1C [Example 89] | 3.16 to 31.6 nM | < 1 nM | < 3.16 nM |  | 
CO[C@H]1C[C@@H]2CC[C@@H](C)[C@@](O)(O2)C(=O)C(=O)N2CCCC[C@H]2C(=O)O[C@H]([C@H](C)C[C@@H]2CC[C@@H](OCc3cccc(-c4cnc(N5CCN(Cc6cn(CCOCCOCCOCCOCCC(=O)NCCCCn7nc(-c8ccc9oc(N)nc9c8)c8c(N)ncnc87)nn6)CC5)nc4)c3)[C@H](OC)C2)CC(=O)[C@H](C)/C=C(\C)[C@@H](O)[C@@H](OC)C(=O)[C@H](C)C[C@H](C)/C=C/C=C/C=C/1C [Example 21] | 3.16 to 31.6 nM | < 1 nM | < 3.16 nM |  | 
CO[C@@H]1C[C@H](C[C@@H](C)[C@@H]2CC(=O)[C@H](C)/C=C(\C)[C@@H](O)[C@@H](OC)C(=O)[C@H](C)C[C@H](C)/C=C/C=C/C=C(\C)[C@@H](c3ccco3)C[C@@H]3CC[C@@H](C)[C@@](O)(O3)C(=O)C(=O)N3CCCC[C@H]3C(=O)O2)CC[C@H]1OCCCCc1cn(CCOCCOCCOCCOCCOCCOCCOCCOCCC(=O)NCCCCn2nc(-c3ccc4oc(N)nc4c3)c3c(N)ncnc32)nn1 [Example 18] | < 3.16 nM | < 1 nM | < 3.16 nM |  | 
CO[C@H]1C[C@@H]2CC[C@@H](C)[C@@](O)(O2)C(=O)C(=O)N2CCCC[C@H]2C(=O)O[C@H]([C@H](C)C[C@@H]2CC[C@H](n3cc(COC(=O)NCCOCCOCCOCCC(=O)NCCOCCOCCC(=O)NCCCCn4nc(-c5ccc6oc(N)nc6c5)c5c(N)ncnc54)nn3)[C@H](OC)C2)C/C(=N/OCc2ccccc2)[C@H](C)/C=C(\C)[C@@H](O)[C@@H](OC)C(=O)[C@H](C)C[C@H](C)/C=C/C=C/C=C/1C [Example 154] | > 1000 nM | > 1000 nM | > 1000 nM |  | 
COC(=O)N[C@H]1C[C@@H]2CC[C@@H](C)[C@@](O)(O2)C(=O)C(=O)N2CCCC[C@H]2C(=O)O[C@H]([C@H](C)C[C@@H]2CC[C@@H](OCCCCc3cn(CCOCCOCCOCCOCCOCCOCCC(=O)N4CCN(c5ccc(-n6c(=O)n(C)c7cnc8ccc(-c9ccc(OC)nc9)cc8c76)cc5C(F)(F)F)CC4)nn3)[C@H](OC)C2)CC(=O)[C@H](C)/C=C(\C)[C@@H](O)[C@@H](OC)C(=O)[C@H](C)C[C@H](C)/C=C/C=C/C=C/1C [Example 73] | < 3.16 nM | < 1 nM | < 3.16 nM |  | 
CO[C@H]1C[C@@H]2CC[C@@H](C)[C@@](O)(O2)C(=O)C(=O)N2CCCC[C@H]2C(=O)O[C@H]([C@H](C)C[C@@H]2CC[C@@H](OCCCCc3cn(CCOCCOCCOCCOCCOCCOCCOCCOCCC(=O)NCc4ccc(Cn5nc(-c6ccc7oc(N)nc7c6)c6c(N)ncnc65)cc4)nn3)[C@H](OC)C2)CC(=O)[C@H](C)/C=C(\C)[C@@H](O)[C@@H](OC)C(=O)[C@H](C)C[C@H](C)/C=C/C=C/C=C/1C [Example 85] |  | < 1 nM |  | 3.16 to 31.6 nM | < 3.16 nM
CO[C@H]1C[C@@H]2CC[C@@H](C)[C@@](O)(O2)C(=O)C(=O)N2CCCC[C@H]2C(=O)O[C@H]([C@H](C)C[C@@H]2CC[C@H](n3nncc3-c3cccc(-c4cnc(N5CCN(Cc6cn(CCOCCOCCOCCOCCOCCC(=O)NCCCCn7nc(-c8ccc9oc(N)nc9c8)c8c(N)ncnc87)nn6)CC5)nc4)c3)[C@H](OC)C2)CC(=O)[C@H](C)/C=C(\C)[C@@H](O)[C@@H](OC)C(=O)[C@H](C)C[C@H](C)/C=C/C=C/C=C/1C [Example 29] | 3.16 to 31.6 nM | < 1 nM | < 3.16 nM |  | 
